Holding throughout (format): cell-based, human
One assay relates to cancer cell lines. Put plainly: Cell viability analysis (WST-1) on cancer cell lines. The following applies: drug 10 μM, 72 hours, WST-1; Table 3. For orientation: Formazan colour is commonly taken as a measure of viable cells.
Assay [1] concerns HI650 (Lung Adenocarcinoma). Put plainly: Cell viability analysis, lung cancer HI650. The conditions noted are these: Homo sapiens.
The test system of assay [2] is A549 (Lung Adenocarcinoma). Put plainly: Cell viability analysis, lung cancer A549. The conditions noted are these: Homo sapiens.
The subject of assay [3] is AGS (Gastric Adenocarcinoma). Kind of assay: Cell viability analysis, gastric cancer AGS. The conditions noted are these: Homo sapiens.
Assay [4] deals with MKN-45 (Gastric Adenocarcinoma). Put plainly: Cell viability analysis, gastric cancer MKN-45. The conditions noted are these: Homo sapiens.
For assay [5], the system named is HepG2 (Hepatocellular Carcinoma). Put plainly: Cell viability analysis, hepatic cancer HepG2. The conditions noted are these: Homo sapiens.
Assay [6] relates to LoVo (Colorectal Adenocarcinoma). Kind of assay: Cell viability analysis, colon cancer LoVo. The conditions noted are these: Homo sapiens, LoVo.
In assay [7] the test system is A375 (Amelanotic Melanoma). Put plainly: Cell viability analysis, skin cancer A375. The following applies: Homo sapiens.
Assay [8] relates to HeLa (Cervix Adenocarcinoma). Put plainly: Cell viability analysis, cervical cancer HeLa. The conditions noted are these: Homo sapiens, HeLa.
In assay [9] the test system is PC3 (p53−) (Prostate Adenocarcinoma). Put plainly: Cell viability analysis, prostate cancer PC3. The following applies: Homo sapiens.
Assay [10] deals with TSGH-8301 (Urinary Bladder Carcinoma). Put plainly: Cell viability analysis, bladder cancer TSGH-8301. The conditions noted are these: Homo sapiens.
In assay [11] the test system is MCF7 (Mammary Gland, Adenocarcinoma). Put plainly: Cell viability analysis, breast cancer MCF7. The conditions noted are these: Homo sapiens.
For assay [12], the system named is HL-60 (Acute Promyelocytic Leukemia). Put plainly: Cell viability analysis, leukemia HL-60. The conditions noted are these: Homo sapiens.
The mark [13] stands for this setting: NCI-H1650, 72 h, drug 10 μM, 72 hours, WST-1, OD450 nm, read-out: cell viability (survival rate), H1650.
Where [14] appears, read: A549, 72 h, drug 10 μM, 72 hours, WST-1, OD450 nm, read-out: cell viability (survival rate), A549.
Setting [15] is: 72 h, drug 10 μM, 72 hours, WST-1, OD450 nm, read-out: cell viability (survival rate), AGS.
[16] abbreviates: MKN-45, 72 h, drug 10 μM, 72 hours, WST-1, OD450 nm, read-out: cell viability (survival rate), MKN-45.
Setting [17] is: HepG2, 72 h, drug 10 μM, 72 hours, WST-1, OD450 nm, read-out: cell viability (survival rate), HepG2.
[18] abbreviates: 72 h, read-out: cell viability (survival rate), LoVo, drug 10 μM, 72 hours, WST-1, OD450 nm.
Where [19] appears, read: A-375, 72 h, drug 10 μM, 72 hours, WST-1, OD450 nm, read-out: cell viability (survival rate), A375.
Where [20] appears, read: 72 h, drug 10 μM, 72 hours, WST-1, OD450 nm, read-out: cell viability (survival rate), HeLa.
Setting [21] is: 72 h, drug 10 μM, 72 hours, WST-1, OD450 nm, read-out: cell viability (survival rate), PC3.
Where [22] appears, read: 72 h, drug 10 μM, 72 hours, WST-1, OD450 nm, read-out: cell viability (survival rate), TSGH.
Where [23] appears, read: MCF7, 72 h, drug 10 μM, 72 hours, WST-1, OD450 nm, read-out: cell viability (survival rate), MCF7.
The mark [24] stands for this setting: HL-60, 72 h, drug 10 μM, 72 hours, WST-1, OD450 nm, read-out: cell viability (survival rate), HL-60.
[25] abbreviates: NCI-H1650, 72 h, read-out: cell viability (survival rate), H1650, drug 10 μM, 72 hours, WST-1, OD450 nm.
Setting [26] is: A549, 72 h, read-out: cell viability (survival rate), A549, drug 10 μM, 72 hours, WST-1, OD450 nm.
Where [27] appears, read: 72 h, read-out: cell viability (survival rate), AGS, drug 10 μM, 72 hours, WST-1, OD450 nm.
The mark [28] stands for this setting: MKN-45, 72 h, read-out: cell viability (survival rate), MKN-45, drug 10 μM, 72 hours, WST-1, OD450 nm.
Setting [29] is: HepG2, 72 h, read-out: cell viability (survival rate), HepG2, drug 10 μM, 72 hours, WST-1, OD450 nm.
The mark [30] stands for this setting: A-375, 72 h, read-out: cell viability (survival rate), A375, drug 10 μM, 72 hours, WST-1, OD450 nm.
The mark [31] stands for this setting: 72 h, read-out: cell viability (survival rate), HeLa, drug 10 μM, 72 hours, WST-1, OD450 nm.
Setting [32] is: 72 h, read-out: cell viability (survival rate), PC3, drug 10 μM, 72 hours, WST-1, OD450 nm.
The mark [33] stands for this setting: 72 h, read-out: cell viability (survival rate), TSGH, drug 10 μM, 72 hours, WST-1, OD450 nm.
Where [34] appears, read: MCF7, 72 h, read-out: cell viability (survival rate), MCF7, drug 10 μM, 72 hours, WST-1, OD450 nm.
[35] abbreviates: HL-60, 72 h, read-out: cell viability (survival rate), HL-60, drug 10 μM, 72 hours, WST-1, OD450 nm.

As usually defined, the viability is a read-out of living cells in per cent, often relative to untreated cells.

Counter-ions that a name gives are not always drawn. Like-named read-outs stand apart in the source and are kept apart here.

Regarding `C[C@@H]1CN(c2c(F)c(F)c3c(=O)c(C(=O)O)cn(C4CC4)c3c2F)C[C@H](C)N1` [Orbifloxacin], the “inhibition effect on different cancer cell lines” value in the assay with cancer cell lines was “significant inhibition effect”. For the same molecule, the viability at 10 µM in assay [1] (setting [13]) turned out to be 63.7%; in [2] (setting [14]) it was 44.2%; in [3] (setting [15]) it was 84.5%; in assay [4] (setting [16]), 44.1%; in [5] (setting [17]) it was 84.2%; in assay [6] (setting [18]) it was 75.4%. For the same molecule, the viability at 10 µM was determined as 55.6% in assay [7] (setting [19]); 66.8% in assay [8] (setting [20]); 51.1% in [9] (setting [21]); 44.3% in assay [10] (setting [22]); 33.3% in [11] (setting [23]); 92.3% in assay [12] (setting [24]).

With `CC(C)[C@H](N)C(=O)OCCOCn1cnc2c(=O)[nH]c(N)nc21` [Valaciclovir HCl], the “inhibition effect on different cancer cell lines” value in the assay on cancer cell lines is on record as “significant inhibition effect”. Moreover, the viability at 10 µM in assay [1] (setting [13]) amounted to 90.6%; in [2] (setting [14]), 126%; in [3] (setting [15]), 110%; in [4] (setting [16]), 91.6%; in assay [5] (setting [17]), 110%; in assay [6] (setting [18]), 97%. Besides, the viability at 10 µM in assay [7] (setting [19]) amounted to 95.6%; in [8] (setting [20]), 109%; in assay [9] (setting [21]), 68.3%; in assay [10] (setting [22]) it was 83.9%; in assay [11] (setting [23]), 67.8%; in assay [12] (setting [24]) it was 103%.

As for `CC[C@H]1OC(=O)C[C@@H](O)[C@H](C)[C@@H](O[C@@H]2O[C@H](C)[C@@H](O)[C@H](N(C)C)[C@H]2O)[C@@H](CCN2C[C@H](C)C[C@H](C)C2)C[C@@H](C)C(=O)/C=C/C(C)=C/[C@@H]1CO[C@@H]1O[C@H](C)[C@@H](O)[C@@H](OC)[C@H]1OC` [Tilmicosin], the “inhibition effect on different cancer cell lines” value in the assay with cancer cell lines was “significant inhibition effect”. In addition, the viability at 10 µM was determined as 72.7% in [1] (setting [13]); 53.5% in assay [2] (setting [14]); 102% in [3] (setting [15]); 52.1% in assay [4] (setting [16]); 92.1% in assay [5] (setting [17]); 83.8% in [6] (setting [18]). Moreover, the viability at 10 µM in assay [7] (setting [19]) was 54.7%; in assay [8] (setting [20]), 67%; in [9] (setting [21]), 81.5%; in assay [10] (setting [22]) it was 56.5%; in assay [11] (setting [23]), 39.1%; in assay [12] (setting [24]) it was 75%.

Consider `C[C@@H]1C/C=C/C=C/C=C/C=C/[C@H](O[C@@H]2O[C@H](C)[C@@H](O)[C@H](N)[C@@H]2O)C[C@@H]2O[C@](O)(C[C@@H](O)C[C@H]3O[C@@H]3/C=C/C(=O)O1)C[C@H](O)[C@H]2C(=O)O` [Natamycin (Pimaricin), Natamycin], for which the “inhibition effect on different cancer cell lines” value with cancer cell lines was “significant inhibition effect”. For the same molecule, the viability at 10 µM is 57% in [1] (setting [25]); 62.6% in [2] (setting [26]); 40.9% in assay [3] (setting [27]); 67.1% in [4] (setting [28]); 95.3% in assay [5] (setting [29]); 84.8% in [6] (setting [18]). The viability at 10 µM in [7] (setting [30]) turned out to be 82.1%; in [8] (setting [31]), 93.5%; in [9] (setting [32]), 70%; in [10] (setting [33]), 84.9%; in [11] (setting [34]), 83.2%; in assay [12] (setting [35]), 107%.

Turning to `Nc1ccc(S(=O)(=O)Nc2nccs2)cc1` [Sulfathiazole], the “inhibition effect on different cancer cell lines” value in the assay with cancer cell lines was “significant inhibition effect”. Moreover, the viability at 10 µM in [1] (setting [25]) turned out to be 38.8%; in [2] (setting [26]), 47.2%; in [3] (setting [27]) it was 54.6%; in [4] (setting [28]) it was 30.8%; in assay [5] (setting [29]), 65.7%; in assay [6] (setting [18]), 78.1%. Besides, the viability at 10 µM in [7] (setting [30]) stood at 30.8%; in [8] (setting [31]) it was 47.7%; in [9] (setting [32]), 94.9%; in [10] (setting [33]), 54.5%; in [11] (setting [34]) it was 60.1%; in assay [12] (setting [35]), 96.7%.

`N[C@@H](C(=O)N[C@@H]1C(=O)N2C(C(=O)O)=C(Cl)CS[C@H]12)c1ccccc1` [Cefaclor (Ceclor), Cefaclor]: the “inhibition effect on different cancer cell lines” value in the assay with cancer cell lines is “significant inhibition effect”. Also, the viability at 10 µM in assay [1] (setting [13]) was 62.3%; in [2] (setting [14]), 61%; in [3] (setting [15]) it was 41.9%; in assay [4] (setting [16]) it was 97%; in [5] (setting [17]) it was 108%; in [6] (setting [18]), 88.2%. For the same molecule, the viability at 10 µM in assay [7] (setting [19]) came out at 67.5%; in assay [8] (setting [20]), 86.7%; in assay [9] (setting [21]), 70.1%; in [10] (setting [22]), 81.6%; in assay [11] (setting [23]), 90.6%; in assay [12] (setting [24]), 112%.

For the molecule `O=C(Nc1ccccc1)c1ccccc1O` [Salicylanilide], the “inhibition effect on different cancer cell lines” value with cancer cell lines is “significant inhibition effect”. The viability at 10 µM was 80.5% in [1] (NCI-H1650, drug 10 μM, 72 hours, WST-1, OD450 nm, read-out: cell viability (survival rate), H1650); 62.1% in assay [2] (A549, drug 10 μM, 72 hours, WST-1, OD450 nm, read-out: cell viability (survival rate), A549); 77.8% in [3] (drug 10 μM, 72 hours, WST-1, OD450 nm, read-out: cell viability (survival rate), AGS); 83.5% in assay [4] (MKN-45, drug 10 μM, 72 hours, WST-1, OD450 nm, read-out: cell viability (survival rate), MKN-45); 97.2% in assay [5] (HepG2, drug 10 μM, 72 hours, WST-1, OD450 nm, read-out: cell viability (survival rate), HepG2); 86.2% in assay [6] (drug 10 μM, 72 hours, WST-1, OD450 nm, read-out: cell viability (survival rate), LoVo). The viability at 10 µM stood at 92.8% in [7] (A-375, drug 10 μM, 72 hours, WST-1, OD450 nm, read-out: cell viability (survival rate), A375); 118% in [8] (drug 10 μM, 72 hours, WST-1, OD450 nm, read-out: cell viability (survival rate), HeLa); 89.7% in assay [9] (drug 10 μM, 72 hours, WST-1, OD450 nm, read-out: cell viability (survival rate), PC3); 108% in assay [10] (drug 10 μM, 72 hours, WST-1, OD450 nm, read-out: cell viability (survival rate), TSGH); 106% in assay [11] (MCF7, drug 10 μM, 72 hours, WST-1, OD450 nm, read-out: cell viability (survival rate), MCF7); 71.1% in assay [12] (HL-60, drug 10 μM, 72 hours, WST-1, OD450 nm, read-out: cell viability (survival rate), HL-60).

The values are drawn from patent US10105357B2, “Indication of antibiotic drugs for preparation of cancer inhibition pharmaceutical composition” (LAUNX BIOMEDICAL CO., LTD., priority 2014, dated 2018).
